Experimental data reported in US6271342A, “Sugar-modified cytostatics” (Bayer Aktiengesellschaft, priority 1995, dated 2001).
Where a name gives a salt, the structure may show the parent alone.

Experiments:
Experiment in all cases: Growth inhibition test (MTT) for cytotoxic properties
Conditions in all cases: Table 1b
[1] = test system: HT 29; assay type: cell-based, human
Procedure, shortened: (§1)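 IC50 values come from an MTT read at 540 nm (5 h at 37 °C, 5 mg/ml MTT stock), taken on day 3 and day 6. Cells (HT 29, SW 480; 50,000 cells/ml in RPMI/10% FCS) were pre-cultured 1 day, then compound in DMSO was added.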

[2] = test system: SW 480; assay type: cell-based, human
Procedure, shortened: as §1

[3] = test system: B 16 F 10; assay type: cell-based, mouse
Procedure: Growth Inhibition Test for Determination of the Cytotoxic Properties of Glycoconjugates of Batracyline and of Quinolone-a
The human colon cell lines SW 480 and HT 29 (ATCC no. CCL 228 and HBT-38) and the mouse melanoma cell line B 16 F 10 were cultured in Roux dishes in RPMI 1640 medium with addition of 10% FCS. The cultures were then trypsinized and taken up in RPMI plus 10% FCS to a cell count of 50,000 cells/ml. 100 μl of cell suspension/well were introduced into a 96 microwell plate and incubated for 1 day at 37° C. in a CO2 incubating cabinet. A further 100 μl of RPMI medium and 1 μl of dimethyl sulphoxide with the test substances were then added. The growth was checked after day 3 and day 6. 40 μl of MTT solution (3-(4,5-dimethylthiazol-2-yl)-2,5-diphenyltetrazoline bromide) with an initial concentration of 5 mg/ml of H2 O were added to each microwave. The plate was incubated for 5 hours in a CO2 incubating cabinet at 37° C. The medium was then sucked off and 100 μl of i-propanol/well were added. After shaking for 30 minutes with 100 μl of H2 O, the extinction was measured at 540 nm with a Titertek Multiskan MCC/340 (Flow).

Compound	IC50 [1]	IC50 [2]	IC50 [3]
COc1cccc2c1C(=O)c1c(O)c3c(c(O)c1C2=O)CC(O)(C(=O)CO)CC3OC1CC(NC(=O)C(C)NC(=O)C(C)NC(=S)Nc2ccc(OC3OC(C)C(O)C(OC)C3O)cc2)C(O)C(C)O1 [Example 17.1, N-{N'-[O-(3--Methyl-β-L-fucopyranosyl)-4-hydroxy-phenylamino-thiocarbonyl]-alanyl-alanyl}-doxorubicin]	5 µM	10 µM	5 µM
COC1C(O)C(C)OC(Oc2ccc(NC(=S)NC(CN)C(=O)NC3C=CCC4CN(c5c(F)cc6c(=O)c(C(=O)O)cn(C7CC7)c6c5Cl)CC43)cc2)C1O [Example 12.15, N-{N^α -[O-(3-O-Methyl-β-L-fucosyl)-4-hydroxy-phenylamino-thiocarbonyl]-diamino-propionoyl)-quinolone-a, hydrochloride]	1 µM	0.3 µM	0.1 µM
C[C@@H]1O[C@H](Oc2ccc(NC(=S)NCCCC[C@H](NC(=S)Nc3ccc(O[C@H]4O[C@@H](C)[C@@H](O)[C@@H](OCC(=O)O)[C@@H]4O)cc3)C(=O)NC3C=CCC4CN(c5c(F)cc6c(=O)c(C(=O)O)cn(C7CC7)c6c5Cl)CC43)cc2)[C@@H](O)[C@H](OCC(=O)O)[C@@H]1O (stereo partly drawn) [Example 11.8, N-{N^α,N^ε -Bis-[O-(3-O-carboxymethyl-β-L-fucosyl)-4-hydroxy-phenylamino-thiocarbonyl]-lysyl}-quinolone-a, di-sodium salt]	16 µM	12 µM	15 µM
COC1C(O)C(C)OC(Oc2ccc(NC(=S)NC(C)C(=O)NC(Cc3ccc(N(CCCl)CCCl)cc3)C(=O)O)cc2)C1O (stereo not drawn) [Example 16.1]	100 µM	50 µM	200 µM
C[C@@H]1O[C@H](Oc2ccc(NC(=S)NCCCC[C@H](N)C(=O)N[C@H](C)C(=O)NC3C=CCC4CN(c5c(F)cc6c(=O)c(C(=O)O)cn(C7CC7)c6c5Cl)CC43)cc2)[C@@H](O)[C@H](OCC(=O)O)[C@@H]1O (stereo partly drawn) [Example 10.1, N-{N^ε -[O(3-O-Carboxymethyl-β-L-fucosyl)-4-hydroxy-phenylamino-thiocarbonyl]-lysyl-D-alanyl}-quinolone-a]	> 250 µM	50 µM	15 µM
CO[C@@H]1[C@H](O)[C@@H](Oc2ccc(NC(=S)NCCCC[C@@H](NC(=S)Nc3ccc(O[C@H]4O[C@H](CO)[C@@H](O)[C@H](OC)[C@@H]4O)cc3)C(=O)NC3C=CCC4CN(c5c(F)cc6c(=O)c(C(=O)O)cn(C7CC7)c6c5Cl)CC43)cc2)O[C@H](CO)[C@H]1O (stereo partly drawn) [Example 11.17, N-{N^α,N^ε -Bis-[O-(3-O-methyl-α-D-mannopyranosyl)-4-hydroxy-phenylamino-thiocarbonyl]-D-lysyl}-quinolone-a, sodium salt]	75 µM	75 µM	8 µM
COC1C(O)C(CO)OC(OC2C(CO)OC(Oc3ccc(NC(=S)NC(CCCCN)C(=O)NC4C=CCC5CN(c6c(F)cc7c(=O)c(C(=O)O)cn(C8CC8)c7c6Cl)CC54)cc3)C(O)C2O)C1O [Example 12.11, N-{N^α -[O-(4-O-(3'-O-Methyl-β-D-galactopyranosyl)-β-D-glucopyranosyl)-4-hydroxy-phenylamino-thiocarbonyl]-lysyl}-quinolone-a hydrochloride]	2 µM	2 µM	0.5 µM
CCC1(OC(=O)[C@@H](NC(=O)[C@H](CCCCN)NC(=S)Nc2ccc(O[C@H]3O[C@@H](C)[C@@H](O)[C@@H](OCC(=O)O)[C@@H]3O)cc2)C(C)C)C(=O)OCc2c1cc1n(c2=O)Cc2cc3ccccc3nc2-1 (stereo partly drawn) [Example 18.9, 20-O-{N^α [O-(3-O-Carboxymethyl-β-L-fucopyranosyl)-4-hydroxy-phenylamino-thiocarbonyl]-lysyl-valinyl}-camptothecin, hydrochloride]	0.06 µM	0.08 µM	0.7 µM
CCC1(OC(=O)C(NC(=O)C(CCCCNC(=S)Nc2ccc(OC3OC(C)C(O)C(OC)C3O)cc2)NC(=S)Nc2ccc(OC3OC(C)C(O)C(OC)C3O)cc2)C(C)C)C(=O)OCc2c1cc1n(c2=O)Cc2cc3ccccc3nc2-1 [Example 18.5, 20-O-{N^α,N^ε -Bis-[O-(3-O-methyl-β-L-fucopyranosyl)-4-hydroxy-phenylamino-thiocarbonyl]-lysyl-valinyl}-camptothecin]	0.2 µM	0.2 µM	1 µM
CO[C@H]1[C@@H](O)[C@@H](CO)O[C@@H](Oc2ccc(NC(=S)NCCCC[C@@H](NC(=S)Nc3ccc(O[C@@H]4O[C@H](CO)[C@H](O)[C@H](OC)[C@H]4O)cc3)C(=O)NC3C=CCC4CN(c5c(F)cc6c(=O)c(C(=O)O)cn(C7CC7)c6c5Cl)CC43)cc2)[C@@H]1O (stereo partly drawn) [Example 11.16, N-{N^α,N^ε -Bis-[O-(3-O-methyl-β-D-galactopyranosyl)-4-hydroxy-phenylamino-thiocarbonyl]-D-lysyl}-quinolone, sodium salt]	10 µM	10 µM	1.5 µM
COC1C(O)C(C)OC(Oc2ccc(NC(=S)NC(C)C(=O)NC(C)C(=O)NC(Cc3ccc(N(CCCl)CCCl)cc3)C(=O)O)cc2)C1O [Example 16.2, N-{N'-[O-(3-O-Methyl-β-L-fucopyranosyl)-4-hydroxy-phenylamino-thiocarbonyl]-alanyl-alanyl}-melphalan]	60 µM	50 µM	80 µM
COC1C(O)C(C)OC(Oc2ccc(NC(=S)NC3C=CCC4CN(c5c(F)cc6c(=O)c(C(=O)O)cn(C7CC7)c6c5Cl)CC43)cc2)C1O [Example 12.13, N-[O-(3-O-Methyl-β-L-fucosyl)-4-hydroxy-phenylamino-thiocarbonyl]-quin olone-a]	100 µM	35 µM	1 µM
C[C@@H]1O[C@H](Oc2ccc(NC(=S)NCCCC[C@@H](NC(=S)Nc3ccc(O[C@H]4O[C@@H](C)[C@@H](O)[C@@H](OCC(=O)O)[C@@H]4O)cc3)C(=O)NC3C=CCC4CN(c5c(F)cc6c(=O)c(C(=O)O)cn(C7CC7)c6c5Cl)CC43)cc2)[C@@H](O)[C@H](OCC(=O)O)[C@@H]1O (stereo partly drawn) [Example 11.9, N-{N^α,N^ε -Bis-[O-(3-O-carboxymethyl-β-L-fucosyl)-4-hydroxy-phenylamino-thiocarbonyl]-D-lysyl}-quinolone-a, di-sodium salt]	12 µM	12 µM	9 µM
CC[C@@]1(OC(=O)[C@H](C)NC(=O)[C@H](CCCCN)NC(=S)Nc2ccc(O[C@H]3O[C@@H](C)[C@@H](O)[C@@H](OC)[C@@H]3O)cc2)C(=O)OCc2c1cc1n(c2=O)Cc2cc3ccccc3nc2-1 [Example 18.14, 20-O-{N^α -[O-(3-O-Methyl-β-L-fucopyranosyl)-4-hydroxy-phenylamino-thiocarbonyl]-lysyl-alanyl}-camptothecin, hydrochloride]	0.01 µM	0.015 µM	0.08 µM
CCC1(OC(=O)C(C)NC(=O)C(CCCCN)NC(=S)Nc2ccc(OC3OC(C)C(O)C(OCC(=O)O)C3O)cc2)C(=O)OCc2c1cc1n(c2=O)Cc2cc3ccccc3nc2-1 (stereo not drawn) [Example 18.2, 20-O-{N^α -[O-(3-O-Carboxymethyl-β-fucopyranosyl)-4hydroxy-phenylamino-thiocarbonyl]-lysyl-alanyl}-camptothecin]	0.02 µM	0.02 µM	0.2 µM
CO[C@H]1[C@H](O)[C@@H](Oc2ccc(NC(=S)NCCCC[C@H](N)C(=O)N[C@@H](C)C(=O)NC3C=CCC4CN(c5c(F)cc6c(=O)c(C(=O)O)cn(C7CC7)c6c5Cl)CC43)cc2)O[C@@H](C)[C@H]1O (stereo partly drawn) [Example 10.2, N-{N^ε -[O-(3-O-Methyl-β-L-fucosyl)-4-hydroxy-phenylamino-thiocarbonyl]-lysyl-alanyl}-quinolone-a]	3 µM	4 µM	5 µM
CO[C@@H]1[C@H](O)[C@@H](Oc2ccc(NC(=S)N[C@@H](CCCCN)C(=O)NC3C=CCC4CN(c5c(F)cc6c(=O)c(C(=O)O)cn(C7CC7)c6c5Cl)CC43)cc2)O[C@H](CO)[C@H]1O (stereo partly drawn) [Example 12.10, N-{N^α -[O-(3-O-Methyl-α-D-mannopyranosyl)-4-hydroxy-phenylamino-thio-carbonyl]-lysyl}-quinolone-a, hydrochloride]	15 µM	15 µM	4 µM
CC(NC(=O)C(CCCCN)NC(=S)Nc1ccc(OC2OC(C)C(O)C(OCC(=O)O)C2O)cc1)C(=O)NC1C=CCC2CN(c3c(F)cc4c(=O)c(C(=O)O)cn(C5CC5)c4c3Cl)CC21 [Example 12.7, N-{N^α -[O-(3-O-Carboxymethyl-β-L-fucosyl)-4-hydroxy-phenylamino-thiocarbonyl]-lysyl-D-alanyl}-quinolone-a]	> 250 µM	60 µM	20 µM
